Experimental data as given in patent US6852685B1, “Use of colostrinin, constituent peptides thereof, and analogs thereof to promote neuronal cell differentiation” (Board of Regents, The University of Texas System, priority 1999, dated 2005).
“Also recorded” adds a separate entry of the source.

Tested on: medullary pheochromocytoma (PC12) cells
Assay: Effect on morphology (differentiation) of PC12 cells
Type: cell-based
Details: for 1% FBS (cell differentiation) / 10% FBS (cell differentiation): six days after treatment; for Cell morphology: morphologies seen after treatment (list per substance, not tied to one concentration)
Protocol: Cells: PC12 cell line derived from medullary pheochromocytoma cells were used to undertake studies described bellow. PC 12 cells were obtained from the American Type Culture Collection and maintained in RPMI-1640 supplemented with 10% fetal bovine serum (HYCLONE Inc), penicillin (100 U/ml) and streptomycin (100 μg/ml).
Methods: To evaluate the effect of colostrum, colostrinin and its component peptides on cell differentiation 3×10^4 logarithmically replicating (70% confluence) PC12 cells were seeded in 24× well plates and cells were allowed to adhere and grow for 24 hours. Serum containing media were aspirated and replaced for serum-free RPMI containing appropriate amount of antibiotics. In four parallel, increasing concentrations (0.1, 1, 10 and 100 μg per ml) of colostrum, colostrinin and its component peptides were added directly into the media and incubated at 37° C. As a positive control, nerve growth factor (NGF) 7S (Gibco-BRL) was used at 100 ng per ml concentration (Chao, Cell, 69, 995-997 (1992); and Marshall et al., Cell 80, 179-185 (1995)). Phorbol 12-myristate 13-acetate (TPA: 10 ng per mil) was used as a negative control. Eight hours later the media were changed and RPMI-1640 was added containing 1% or 10% fetal bovine serum. The cultures were microscopically investigated 2nd, 4th and 6th days after treatment. Six days after treatment cells were fixed with paraformaldehyde (4%) and stained with 0.01% crystal violet solution. Excess of dyes were removed by ethanol washing. The final evaluation took place using a microscopy (Axiophot2 Zeiss Inc., Germany).

| Molecule | 1% FBS (cell differentiation) (0.1 μg/ml) | 1% FBS (cell differentiation) (1.0 μg/ml) | 1% FBS (cell differentiation) (10 μg/ml) | 1% FBS (cell differentiation) (100 μg/ml) | 10% FBS (cell differentiation) (0.1 μg/ml) | 10% FBS (cell differentiation) (10 μg/ml) | 10% FBS (cell differentiation) (100 μg/ml) | Cell morphology | 10% FBS (cell differentiation) (1.0 μg/ml) |
| --- | --- | --- | --- | --- | --- | --- | --- | --- | --- |
| DQPPDVEKPDLQPFQVQS [SEQ ID NO:3] | − (− = ≦0.01% (back-ground)) | − (− = ≦0.01% (back-ground)) | − (− = ≦0.01% (back-ground)) | − (− = ≦0.01% (back-ground)) | − (− = ≦0.01% (back-ground)) | + (+ = 1%) | + (+ = 1%) | fibroblast-like; also recorded: neuron-like | – |
| MQPPPLP [SEQ ID NO:1] | − (− = ≦0.01% (back-ground)) | − (− = ≦0.01% (back-ground)) | − (− = ≦0.01% (back-ground)) | − (− = ≦0.01% (back-ground)) | – | ++ (++ = 1-5%) | – | epitheloid; also recorded: neuron-like | + (+ = 1%) |
| LQTPQPLLQVMMEPQGD [SEQ ID NO:2] | − (− = ≦0.01% (back-ground)) | − (− = ≦0.01% (back-ground)) | + (+ = 1%) | − (− = ≦0.01% (back-ground)) | – | ++ (++ = 1-5%) | + (+ = 1%) | fibroblast-like; also recorded: neuron-like | ++ (++ = 1-5%) |
| DLEMPVLPVEPFPFV [SEQ ID NO:5] | − (− = ≦0.01% (back-ground)) | − (− = ≦0.01% (back-ground)) | − (− = ≦0.01% (back-ground)) | − (− = ≦0.01% (back-ground)) | − (− = ≦0.01% (back-ground)) | – | + (+ = 1%) | fibroblast-like; also recorded: epitheloid; also recorded: neuron-like | − (− = ≦0.01% (back-ground)) |
| VLEMKFPPPPQETVT [SEQ ID NO:7] | − (− = ≦0.01% (back-ground)) | − (− = ≦0.01% (back-ground)) | − (− = ≦0.01% (back-ground)) | − (− = ≦0.01% (back-ground)) | − (− = ≦0.01% (back-ground)) | + (+ = 1%) | – | fibroblast-like; also recorded: neuron-like | + (+ = 1%) |
| LKPFPKLKVEVFPFP [SEQ ID NO:8] | − (− = ≦0.01% (back-ground)) | − (− = ≦0.01% (back-ground)) | − (− = ≦0.01% (back-ground)) | − (− = ≦0.01% (back-ground)) | − (− = ≦0.01% (back-ground)) | + (+ = 1%) | − (− = ≦0.01% (back-ground)) | fibroblast-like; also recorded: neuron-like | ++ (++ = 1-5%) |
| LFFFLPVVNVLP [SEQ ID NO:4] | − (− = ≦0.01% (back-ground)) | − (− = ≦0.01% (back-ground)) | − (− = ≦0.01% (back-ground)) | − (− = ≦0.01% (back-ground)) | − (− = ≦0.01% (back-ground)) | ++ (++ = 1-5%) | ++ (++ = 1-5%) | fibroblast-like; also recorded: epitheloid; also recorded: neuron-like | + (+ = 1%) |
| CCCCCCCCCCCCCC(=O)O[C@@H]1[C@@H](C)[C@@]2(O)[C@@H](C=C(CO)C[C@]3(O)C(=O)C(C)=C[C@@H]23)[C@@H]2C(C)(C)[C@]12OC(C)=O [TPA, Phorbol 12-myristate 13-acetate, reference compound] | – | – | – | – | – | – | – | rounded | – |
| MPQNFYKLPQM [SEQ ID NO:6] | − (− = ≦0.01% (back-ground)) | − (− = ≦0.01% (back-ground)) | − (− = ≦0.01% (back-ground)) | − (− = ≦0.01% (back-ground)) | − (− = ≦0.01% (back-ground)) | + (+ = 1%) | + (+ = 1%) | fibroblast-like; also recorded: epitheloid | – |
| VESYVPLFP [SEQ ID NO:31] | – | − (− = ≦0.01% (back-ground)) | − (− = ≦0.01% (back-ground)) | – | − (− = ≦0.01% (back-ground)) | – | – | fibroblast-like; also recorded: neuron-like | – |
